Assay results reported in ChEMBL document CHEMBL1135365, “Mixed lineage kinase activity of indolocarbazole analogues” (Bioorg Med Chem Lett, 2002).

Experiments:
Protein kinase C (PKC) = assay: Inhibition of protein kinase C (PKC) from rat brain homogenate
[1] = molecular target: Mitogen-activated protein kinase kinase kinase 11 (Homo sapiens, UniProt Q16584); assay: Inhibition of Mixed lineage kinase 3 (MLK3)
[2] = molecular target: Mitogen-activated protein kinase kinase kinase 10 (Homo sapiens, UniProt Q02779); assay: Inhibition of Mixed lineage kinase 2(MLK2)
Mitogen-activated protein kinase kinase kinase 10, sequence (Q02779 whole entry): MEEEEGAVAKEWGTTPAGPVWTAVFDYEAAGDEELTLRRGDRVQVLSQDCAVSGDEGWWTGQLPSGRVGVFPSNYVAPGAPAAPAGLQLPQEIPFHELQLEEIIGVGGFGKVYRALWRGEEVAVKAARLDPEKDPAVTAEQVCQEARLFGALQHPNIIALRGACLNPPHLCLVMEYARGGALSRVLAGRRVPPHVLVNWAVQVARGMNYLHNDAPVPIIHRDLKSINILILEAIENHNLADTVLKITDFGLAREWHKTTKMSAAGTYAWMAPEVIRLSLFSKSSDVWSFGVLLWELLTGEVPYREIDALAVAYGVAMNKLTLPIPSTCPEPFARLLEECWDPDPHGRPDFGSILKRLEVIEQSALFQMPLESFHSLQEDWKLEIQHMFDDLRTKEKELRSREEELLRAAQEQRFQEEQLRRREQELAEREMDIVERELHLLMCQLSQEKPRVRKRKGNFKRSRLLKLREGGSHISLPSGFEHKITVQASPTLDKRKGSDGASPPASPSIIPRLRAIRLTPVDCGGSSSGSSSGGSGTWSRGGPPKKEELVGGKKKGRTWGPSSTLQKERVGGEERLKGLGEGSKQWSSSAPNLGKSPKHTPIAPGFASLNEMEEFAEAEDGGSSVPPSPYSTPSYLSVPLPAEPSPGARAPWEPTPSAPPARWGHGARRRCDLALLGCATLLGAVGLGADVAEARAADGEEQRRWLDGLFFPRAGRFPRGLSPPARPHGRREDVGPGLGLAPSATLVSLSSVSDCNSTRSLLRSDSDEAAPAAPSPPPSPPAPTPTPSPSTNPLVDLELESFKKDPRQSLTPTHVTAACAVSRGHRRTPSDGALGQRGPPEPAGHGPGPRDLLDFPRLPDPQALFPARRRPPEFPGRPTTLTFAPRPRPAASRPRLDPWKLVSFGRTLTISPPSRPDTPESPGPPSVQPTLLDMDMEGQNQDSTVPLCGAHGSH

[3] = molecular target: Mitogen-activated protein kinase kinase kinase 9 (Homo sapiens, UniProt P80192); assay: Inhibition of Mixed lineage kinase 1 (MLK1)
Mitogen-activated protein kinase kinase kinase 9, sequence (P80192 whole entry): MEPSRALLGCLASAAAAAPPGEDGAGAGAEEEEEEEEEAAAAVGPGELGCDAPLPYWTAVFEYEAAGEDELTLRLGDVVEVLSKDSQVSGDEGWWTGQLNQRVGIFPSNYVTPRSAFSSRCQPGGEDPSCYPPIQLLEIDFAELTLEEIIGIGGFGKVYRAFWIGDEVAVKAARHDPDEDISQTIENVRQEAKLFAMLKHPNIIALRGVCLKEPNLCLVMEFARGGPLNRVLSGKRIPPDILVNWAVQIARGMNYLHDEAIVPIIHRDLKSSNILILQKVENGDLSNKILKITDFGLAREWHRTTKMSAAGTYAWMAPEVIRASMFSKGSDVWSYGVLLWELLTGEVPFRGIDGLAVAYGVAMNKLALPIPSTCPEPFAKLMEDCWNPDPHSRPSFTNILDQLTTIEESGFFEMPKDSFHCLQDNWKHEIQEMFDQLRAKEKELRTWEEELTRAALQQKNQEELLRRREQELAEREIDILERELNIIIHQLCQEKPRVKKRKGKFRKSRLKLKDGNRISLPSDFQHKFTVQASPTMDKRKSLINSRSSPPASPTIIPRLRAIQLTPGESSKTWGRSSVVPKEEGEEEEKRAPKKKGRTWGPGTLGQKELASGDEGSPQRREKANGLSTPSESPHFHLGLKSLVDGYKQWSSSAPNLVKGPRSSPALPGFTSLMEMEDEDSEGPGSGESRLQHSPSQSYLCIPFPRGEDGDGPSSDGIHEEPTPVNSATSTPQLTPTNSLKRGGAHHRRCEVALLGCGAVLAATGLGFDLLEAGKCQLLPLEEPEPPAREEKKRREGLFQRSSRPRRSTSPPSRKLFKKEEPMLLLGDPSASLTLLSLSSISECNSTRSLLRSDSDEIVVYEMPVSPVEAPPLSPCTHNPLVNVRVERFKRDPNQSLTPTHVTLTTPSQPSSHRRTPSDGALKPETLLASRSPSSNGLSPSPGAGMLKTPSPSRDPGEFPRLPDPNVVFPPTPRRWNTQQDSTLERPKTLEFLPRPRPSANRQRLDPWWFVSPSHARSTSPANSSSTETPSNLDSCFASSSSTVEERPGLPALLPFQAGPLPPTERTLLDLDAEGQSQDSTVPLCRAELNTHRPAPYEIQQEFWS

[4] = molecular target: High affinity nerve growth factor receptor (Homo sapiens, UniProt P04629); assay: Inhibition of NGF high affinity receptor tyrosine kinase TrkA
High affinity nerve growth factor receptor, sequence (P04629 whole entry): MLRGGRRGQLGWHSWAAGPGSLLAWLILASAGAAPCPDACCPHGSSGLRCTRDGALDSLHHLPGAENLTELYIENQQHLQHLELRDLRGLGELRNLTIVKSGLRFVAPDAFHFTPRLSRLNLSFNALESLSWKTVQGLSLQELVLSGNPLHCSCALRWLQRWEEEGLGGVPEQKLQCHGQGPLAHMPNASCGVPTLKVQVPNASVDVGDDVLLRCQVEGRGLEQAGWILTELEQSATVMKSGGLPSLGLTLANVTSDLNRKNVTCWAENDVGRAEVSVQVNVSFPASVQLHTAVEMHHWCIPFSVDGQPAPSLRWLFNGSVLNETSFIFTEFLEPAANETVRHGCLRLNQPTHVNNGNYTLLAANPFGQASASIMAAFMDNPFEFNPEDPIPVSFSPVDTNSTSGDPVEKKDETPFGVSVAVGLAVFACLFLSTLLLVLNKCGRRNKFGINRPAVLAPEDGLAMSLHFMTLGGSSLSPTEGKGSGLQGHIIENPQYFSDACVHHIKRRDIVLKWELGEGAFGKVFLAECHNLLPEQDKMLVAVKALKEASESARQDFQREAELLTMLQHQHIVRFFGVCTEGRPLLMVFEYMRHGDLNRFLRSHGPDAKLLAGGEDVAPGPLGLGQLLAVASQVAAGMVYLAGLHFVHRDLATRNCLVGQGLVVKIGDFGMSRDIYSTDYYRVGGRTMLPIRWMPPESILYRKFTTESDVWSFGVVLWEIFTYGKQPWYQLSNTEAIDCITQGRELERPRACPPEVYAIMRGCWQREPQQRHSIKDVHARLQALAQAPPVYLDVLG

Mitogen-activated protein kinase kinase kinase 11, sequence (Q16584 whole entry): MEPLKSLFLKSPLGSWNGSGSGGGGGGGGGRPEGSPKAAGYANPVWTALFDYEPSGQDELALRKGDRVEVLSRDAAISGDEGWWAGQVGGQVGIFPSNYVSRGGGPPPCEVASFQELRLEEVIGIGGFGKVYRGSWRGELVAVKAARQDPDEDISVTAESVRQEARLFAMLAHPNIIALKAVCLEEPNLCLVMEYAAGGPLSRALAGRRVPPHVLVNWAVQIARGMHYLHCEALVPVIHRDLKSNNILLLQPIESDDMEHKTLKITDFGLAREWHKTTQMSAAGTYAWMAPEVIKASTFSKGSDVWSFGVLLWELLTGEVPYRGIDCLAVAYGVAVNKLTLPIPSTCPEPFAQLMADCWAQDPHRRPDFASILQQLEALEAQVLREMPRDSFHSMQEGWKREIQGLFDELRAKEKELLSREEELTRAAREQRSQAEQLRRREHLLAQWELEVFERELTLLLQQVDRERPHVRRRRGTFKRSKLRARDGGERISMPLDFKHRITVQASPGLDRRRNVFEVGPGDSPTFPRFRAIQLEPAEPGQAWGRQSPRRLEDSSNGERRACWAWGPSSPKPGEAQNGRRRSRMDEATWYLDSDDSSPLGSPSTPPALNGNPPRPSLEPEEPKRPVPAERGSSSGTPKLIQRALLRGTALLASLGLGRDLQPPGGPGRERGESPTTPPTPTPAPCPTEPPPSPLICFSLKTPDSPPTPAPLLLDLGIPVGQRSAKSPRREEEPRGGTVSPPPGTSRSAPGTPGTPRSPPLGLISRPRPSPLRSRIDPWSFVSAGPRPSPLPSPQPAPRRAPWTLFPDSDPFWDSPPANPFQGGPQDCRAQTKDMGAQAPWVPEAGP

Row | Structure (SMILES) | IC50 (Protein kinase C (PKC)) [nM] | IC50 [1] [nM] | IC50 [2] [nM] | IC50 [3] [nM] | IC50 [4] [nM]
1 | CCOCc1ccc2c(c1)c1c3c(c4c5cc(COCC)ccc5n5c4c1n2[C@H]1C[C@](O)(C(=O)OC)[C@]5(C)O1)CNC3=O | 2600 | 11 | 20 | 19 | 210
2 | CCSCc1ccc2c(c1)c1c3c(c4c5ccccc5n5c4c1n2[C@H]1C[C@](O)(C(=O)OC)[C@]5(C)O1)CNC3=O | 222 | 44 | 140 | 43 | > 1000
3 | COCc1ccc2c(c1)c1c3c(c4c5cc(COC)ccc5n5c4c1n2[C@H]1C[C@](O)(C(=O)OC)[C@]5(C)O1)CNC3=O | 450 | 11 | 16 | 16 | 270
4 | CCSCc1ccc2c(c1)c1c3c(c4c5ccccc5n5c4c1n2[C@@]1(C)O[C@@H]5C[C@]1(O)C(=O)OC)C(=O)NC3 | 400 | 21 | 28 | 28 | 61

More lines, in order of falling IC50 [1], values ahead:

Row | IC50 (Protein kinase C (PKC)) [nM] | IC50 [1] [nM] | IC50 [2] [nM] | IC50 [3] [nM] | IC50 [4] [nM] | Structure (SMILES)
5 | > 7600 | 143 | 627 | 303 | > 1000 | CCCCSCc1ccc2c(c1)c1c3c(c4c5cc(CSCCCC)ccc5n5c4c1n2[C@H]1C[C@](O)(C(=O)OC)[C@]5(C)O1)CNC3=O
6 | 1600 | 123 |  | 360 | > 1000 | COC(=O)[C@@]1(O)C[C@H]2O[C@]1(C)n1c3ccc(CSCCN(C)C)cc3c3c4c(c5c6cc(CSCCN(C)C)ccc6n2c5c31)C(=O)NC4
7 | > 10000 | 94 |  | 162 | > 1000 | C=CCSCc1ccc2c(c1)c1c3c(c4c5cc(CSCC=C)ccc5n5c4c1n2[C@H]1C[C@](O)(C(=O)OC)[C@]5(C)O1)CNC3=O
8 | > 10000 | 56 |  | 90 | > 10000 | CCCSCc1ccc2c(c1)c1c3c(c4c5cc(CSCCC)ccc5n5c4c1n2[C@H]1C[C@](O)(C(=O)OC)[C@]5(C)O1)CNC3=O
9 | 980 | 31 | 89 | 45 | > 10000 | COC(=O)[C@@]1(O)C[C@H]2O[C@]1(C)n1c3ccc(CSC(C)C)cc3c3c4c(c5c6cc(CSC(C)C)ccc6n2c5c31)C(=O)NC4
10 | > 10000 | 23.1 | 51 | 38 | > 10000 | CCSCc1ccc2c(c1)c1c3c(c4c5cc(CSCC)ccc5n5c4c1n2[C@H]1C[C@](O)(C(=O)OC)[C@]5(C)O1)CNC3=O [CEP-1347]
11 | 3 | 11 |  | 15 |  | COC(=O)[C@@]1(O)C[C@H]2O[C@]1(C)n1c3ccc(CO)cc3c3c4c(c5c6cc(CO)ccc6n2c5c31)C(=O)NC4
